Laboratory results published in patent US4752614A, “Pharmaceutical compositions of tellerium and selenium compounds for the induction of in vivo and in vitro production of cytokines” (Bar-Ilan University, priority 1987, dated 1988).
“And” between values parts separate entries of the source, which are not always exact repeats. Identical values can stand only once. “Also recorded” adds a separate entry of the source.

Tests used:
[1] = tested on: experimentally induced tumor; experiment: In vivo effect on methylcholanthrene (MCA) induced tumor (Example 5); parameters: species or system C3 Heb mice; settings: 10 μg IP
Experimental: A solution of 0.2% of methylcholanthrene (MCA, Sigma, USA) was prepared by dissolving 2 mg of the carcinogen in 1.0 ml of olive oil (Ref: Petra, et al., Cancer 19:302, 1961) with continuous shaking at 37° C. for 30 minutes. Six to eight week old C3 Heb mice were injected with 0.6 mg MCA/0.3 ml of solvent/mouse subcutaneously in the rear right thigh. After 21-30 days the induced tumor was surgically removed and pushed through 60 mesh stainless nets to obtain isolated cells. These cells were then further injected subcuteneously into the rear right thigh of C3 Heb mice 5 to 8 weeks of age, at a concentration of 10^6 cells/0.3 ml PBS/mouse/hypodermic needle 25 gauge, 5/8" to further induce tumor formation.
Five days after injection of the tumor cells, a palpable tumor was induced. The animals were thereafter treated as follows:
(a) control (0.2 ml 40% DMSO 60% PBS, IP 1 day after the induced tumor was palpable)
(b) 10 μg of compound of Example 1, IP to 5 mice (in 0.2 ml 40% DMSO 60% PBS, 3 days after the induced tumor was palpable and a second injection of 10 μg of compound in the same solvent was administered 5 days after the first injection to 3 of the 5 mice.
All animals expired 35 to 38 days after the initial innoculation.

IL-2 [2] = experiment: IL-2 activity of supernatants of human mononuclear cells on CTLD cells (Example 8); format: cell-based; settings: 72 hours
IL-2 [3] = experiment: Oral administration in powdered sucrose, IL-2 content (Example 13); format: in vivo, mice; settings: for IL-2 content: oral, 24 hours
Experimental: The compound of Example 1 was thoroughly mixed with powdered sucrose and 10 μg of the compound of example 1 in 25 mg of powdered sucrose was placed in the mouth of each mouse.
After 24 hours the mice were sacrificed and the spleens were processed as described above.

IL-2 receptors = experiment: Induction of IL-2 receptors of human mononuclear cells, proliferation with recombinant IL-2 (Example 18); format: cell-based
Experimental: Human MNC were brought to a concentration of 10^6 cells/ml. RPMI+10% FCS. Aliquots of 0.2 ml. were placed in duplicate wells of microdishes and plates were incubated at 37° C. for 24 hrs. […] Plates were further incubated for 48 hrs. and labelled with 3H thymidine 24 hrs. before harvesting.
The proliferation was measured by ^3 HT uptake as described by Gillis et al, J. Immunol. […] The results are expressed in counts per minute.

IL-2 [4] = experiment: IL-2 production by human mononuclear cells of normal donors and SLE patients (Example 20); format: cell-based
Experimental: Using the procedure of Example 4, human mononuclear cells were tested for their ability to produce IL-2 after induction with PHA or in unstimulated cells from normal donors and from patients suffering from systemic lupus erthyrematous. The IL-2 content was tested according to the procedure of Example 3 using the CTLD IL-2 dependent cell line.

West Nile virus (WNV) = experiment: West Nile virus infection in mice (Example 22); format: in vivo, ICR mice; settings: for # Alive/Total Animals: Table A; for # Alive/Total Animals / # Alive/Total: preliminary; for # Alive/Total: Table B
Experimental: The compounds may be used as anti-bacterial or anti-viral agents in plants or in animals. Virus infections such as West Nile virus infections in mice are susceptible to the compound of the Example 1 at a dose of 10 μg/day/mouse. Plant bacterial infections such as crown gall caused by Agrobacterium tumefaciens may be treated or prevented by the application of a 0.1% solution of compounds of the invention.
The effect of the compound of Example 1 on an infection with West Nile virus (WNV) was determined. WNV is a toga virus of the flavivirus group, a positive single stranded RNA virus, which when injected IP to mice usually kills them within 5-8 days as a result of extensive damage to the central nervous system. For this study ICR mice (3 wks of age) were injected IP with the virus at the concentration of 10^3 or 10^4 LD 50 units/mouse. Injections of 10 μg/0.2 ml PBS/mouse of the compound of Ex. 1 were given on day -1 (one day prior to injection of virus) and 6 days after injection of virus.
In a second experiment, mice were injected with 10^3 IPLD50 virus and received injections of the compound of Example 1 (1 μg/0.2 ml PBS/mouse) on days -1, 1, 2 and 4.

WNV = WNV yield in mouse macrophage cultures (Example 23); format: cell-based, ICR mouse macrophage; settings: 72 h; for Virus Yield: preliminary
Experimental: Varying amounts of the compound of Example 1 (5 μg, 1 μg, 0.1 μg) were incubated with a monolayer of mouse macrophages for 24 h. […] All cultures were then infected with 10^4 PFU/plate. After 72 h incubation the supernatants were collected and the virus was titrated against Vera cells.

Cl[TeH]1(Cl)(Cl)OCCO1 [Example 1]
Vol. of Tumor (13 days) ([1]; day 3, individual mouse): 0.77 and 1.66 | Vol. of Tumor (13 days) ([1]; day 3 and 5, individual mouse): 0.7 and 0.52 and 0.31 | IL-2 activity (IL-2 [2]; 1 ng): 11,000 Counts per minute | IL-2 activity (IL-2 [2]; 10 ng): 1,500 Counts per minute | IL-2 activity (IL-2 [2]; 1 μg): 250 Counts per minute | IL-2 activity (IL-2 [2]; 100 μg): 280 Counts per minute | IL-2 content (IL-2 [3]; Test 1, 10 μg in 25 mg sucrose): 250,175 cpm and 166,475 cpm | IL-2 content (IL-2 [3]; Test 2, 10 μg in 25 mg sucrose): 55,382 cpm and 41,938 cpm and 29,172 cpm | induction of lymphokine production (IL-2 [3]; given in dry form or hydrolyzed in an aqueous diluent): active | proliferation (3HT uptake) (IL-2 receptors; Test A, 1 μg/ml): 28625 counts per minute and 27593 counts per minute | proliferation (3HT uptake) (IL-2 receptors; Test A, 1 × 10^-3 μg/ml): 3652 counts per minute and 5055 counts per minute | proliferation (3HT uptake) (IL-2 receptors; Test A, 1 × 10^-4 μg/ml): 3558 counts per minute and 4047 counts per minute | proliferation (3HT uptake) (IL-2 receptors; Test A, 1 × 10^-5 μg/ml): 2474 counts per minute and 4063 counts per minute | proliferation (3HT uptake) (IL-2 receptors; Test A, 5 × 10^-1 μg/ml): 120755 counts per minute and 105943 counts per minute | proliferation (3HT uptake) (IL-2 receptors; Test B, 1 μg/ml): 23488 counts per minute | proliferation (3HT uptake) (IL-2 receptors; Test B, 1 × 10^-2 μg/ml): 6057 counts per minute | proliferation (3HT uptake) (IL-2 receptors; Test B, 1 × 10^-3 μg/ml): 5865 counts per minute | proliferation (3HT uptake) (IL-2 receptors; Test B, 1 × 10^-4 μg/ml): 4960 counts per minute | proliferation (3HT uptake) (IL-2 receptors; Test B, 1 × 10^-5 μg/ml): 7155 counts per minute | proliferation (3HT uptake) (IL-2 receptors; Test B, 5 × 10^-1 μg/ml): 66910 counts per minute | proliferation (3HT uptake) (IL-2 receptors; Test B, 5 × 10^-2 μg/ml): 5390 counts per minute | proliferation (3HT uptake) (IL-2 receptors; Test B, 7 × 10^-1 μg/ml): 17620 counts per minute | IL-2 production (IL-2 [4]; SLE, PHA +, 5 μg 0.2 ml PBS): 6.3 CPM × 10^-3 and 8.2 CPM × 10^-3 and 4.1 CPM × 10^-3 | IL-2 production (IL-2 [4]; SLE, PHA +, 1:50 PBS): 24.2 CPM × 10^-3 and 28.1 CPM × 10^-3 and 23.8 CPM × 10^-3 | IL-2 production (IL-2 [4]; SLE, PHA +, 1:100 PBS): 19.7 CPM × 10^-3 and 24.0 CPM × 10^-3 and 20.2 CPM × 10^-3 | IL-2 production (IL-2 [4]; SLE, PHA +, 1:200 PBS): 15.4 CPM × 10^-3 and 18.6 CPM × 10^-3 and 16.8 CPM × 10^-3 | IL-2 production (IL-2 [4]; SLE, PHA -, 5 μg 0.2 ml PBS): 2.0 CPM × 10^-3 and 2.4 CPM × 10^-3 | IL-2 production (IL-2 [4]; SLE, PHA -, 1:100 PBS): 32.1 CPM × 10^-3 and 35.1 CPM × 10^-3 and 18.1 CPM × 10^-3 | IL-2 production (IL-2 [4]; normal, PHA +, 5 μg 0.2 ml PBS): 36.4 CPM × 10^-3 and 30.4 CPM × 10^-3 and 38.9 CPM × 10^-3 | IL-2 production (IL-2 [4]; normal, PHA +, 1:50 PBS): 48.2 CPM × 10^-3 and 38.9 CPM × 10^-3 and 53.5 CPM × 10^-3 | IL-2 production (IL-2 [4]; normal, PHA +, 1:100 PBS): 46.2 CPM × 10^-3 and 54.2 CPM × 10^-3 and 44.8 CPM × 10^-3 | IL-2 production (IL-2 [4]; normal, PHA +, 1:200 PBS): 38.6 CPM × 10^-3 and 49.8 CPM × 10^-3 and 38.3 CPM × 10^-3 | IL-2 production (IL-2 [4]; normal, PHA -, 5 μg 0.2 ml PBS): 2.3 CPM × 10^-3 and 2.1 CPM × 10^-3 | IL-2 production (IL-2 [4]; normal, PHA -, 1:50 PBS): 43.6 CPM × 10^-3 and 52.2 CPM × 10^-3 and 50.8 CPM × 10^-3 | IL-2 production (IL-2 [4]; normal, PHA -, 1:100 PBS): 38.4 CPM × 10^-3 and 50.3 CPM × 10^-3 and 46.1 CPM × 10^-3 | IL-2 production (IL-2 [4]; normal, PHA -, 1:200 PBS): 30.1 CPM × 10^-3 and 47.1 CPM × 10^-3 and 31.3 CPM × 10^-3 | susceptibility of West Nile virus infections in mice (West Nile virus (WNV); 10 μg/day/mouse): susceptible | survival beyond day 8 (West Nile virus (WNV); 10^3 IPLD50, 1 μg/mouse days -1, 1, 2 and 4): Two out of the remaining three survived an additional 8 days; also recorded: the third remained alive without any manifestations of clinical symptoms | # Alive/Total Animals (West Nile virus (WNV); 10^3 LD50 virus, 10 μg/mouse days -1 and 6, after 8 days): 3/5 | # Alive/Total Animals (West Nile virus (WNV); 10^4 LD50 virus, 10 μg/mouse days -1 and 6, after 8 days): 3/5 | # Alive/Total Animals (West Nile virus (WNV); no virus (0), 10 μg/mouse days -1 and 6): 6/6 | # Alive/Total (West Nile virus (WNV); 10^3 IPLD50, 1 μg/mouse days -1, 1, 2 and 4, day 8): 3/5 | # Alive/Total (West Nile virus (WNV); compound alone, 1 μg/mouse days -1, 1, 2 and 4, day 8): 5/5 | reduction of virus yield (WNV; 0.1 μg): ten | Virus Yield (WNV; 0.1 μg/plate): 2 × 10^3 PFU/ml | reduction of virus yield (WNV; 1 μg): 40 fold | Virus Yield (WNV; μg/plate (text: 1 μg)): 5 × 10^2 PFU/ml
